# In patent US20060258697A1, “Method of augmenting the antitumor activity of anticancer agents” (priority 2003, published 2006):
# Assays:
# nude mice = assay: Irinotecan lethality / survival with and without selenium compound; assay type: in vivo; details: nude mice, p.o. daily
# Protocol: This example describes the evaluation of the effect of selenium containing compounds on the antitumor activity of irinotecan. […] Irinotecan was administered at 100 mg/kg/wk for 4 weeks (MTD) and 200 mg/kg/wk for 4 weeks (toxic) alone and in combination with 0.2 mg/mouse/d of MSC for 28 days to nude mice bearing HCT-8 colon xenografts. […] Thus, MSC potentiates the efficacy of irinotecan by increasing cure rate and by decreasing toxicity.
# Nude mice (5 mice/group; experiment repeated ≧3 times) were treated with 0.2 mg/mouse/day of SLM (data replicated with MSC) for 21, 7, 3, 1, or 0 days prior to initiation of weekly IV irinotecan at 2 ×the MTD (at 200mg/kg/week×4). […] 3 days pre-treatment was associated with 80% survivorship while 0-1 days were associated with 60% (45% survivorship for irinotecan alone) (FIG. 13). Thus, the optimal duration of pre-treatment with SLM 0.2mg/mouse/day for maximum protection against irinotecan lethality was identified to be at least 1 week.
# rat = assay: Reduction of doxorubicin toxicity by selenium compounds in rats; assay type: in vivo; details: 0.5 mg/day/rat daily for 14 days, started 7 days prior to doxorubicin; data not shown
# normal nude mice = assay: Toxicity of selenium compounds alone in normal nude mice; assay type: in vivo; details: 0.2 mg/mouse/day for 28 days orally
# Protocol: However, it was observed that when cure rates were evaluated, selenium increased the efficacy of only irinotecan and taxotere. While not intending to be bound by any particular theory, it is considered that potentiation of the efficacy of anticancer drugs is associated with increased antitumor activity and decreased toxicity.
# [1] = system: A253 squamous cell carcinoma of the head and neck xenografts; assay: Cure rate / antitumor activity in nude mice bearing A253 head and neck xenografts; assay type: in vivo
# Protocol: (§1) 5-Methylselenocysteine (MSC). Two schedules were evaluated: 1) in combination with irinotecan, MSC (0.2 mg/mouse/d×28) was administered orally for 28 days with the first dose administered daily for seven days prior to the weekly drug administration and 2) in combination with other drugs, MSC was administered orally (0.2 mg/mouse/d×14) daily for 14 days with the first dose administered daily for seven days prior to the single i.v. administration of taxol, CDDP, Dox, taxotere and cyclophosphamide.
# (§2) Anticancer drug administration. The anticancer drugs administration schedule was as follows. • i. Irinotecan (CPT-11), weekly i.v. push for four (4) weeks, • ii. Taxol, single i.v. push, • iii. Cisplatin (CDDP), single i.v. push. • iv. Doxorubin (Dox), single i.v. push. • v. Cyclophosphamide, single i.v. push. • vi. Oxaliplatin, single i.v. push • vii. Taxotere, single i.v. push
# Tumor Xenografts. […] The following tumor xenografts were established. • i. HCT-8: poorly-differentiated colon carcinoma, expressing wild type p53 • ii. HT-29: well-differentiated colon carcinoma expressing mutant p53 • iii. A253: well-differentiated squamous cell carcinoma of the head and neck (SCCHN) expressing no p53 • iv. FaDu: poorly-differentiated squamous cell carcinoma of the head and neck (SCCHN) expressing mutant p53
# This example describes the comparative antitumor activity of MSC and SLM in combination with the maximum tolerated dose of irinotecan. […] As an illustration, MSC and SLM were used in combination with irinotecan. The results, shown in FIG. 3, represent a comparative evaluation of the effect of MSC and SLM (0.2 mg/mouse/d×28) on the antitumor activity of irinotecan (100 mg/kg/wk×4).
# To determine whether therapeutic synergy achieved with irinotecan in xenografts is specific for MSC, the antitumor activity of irinotecan with and without two selenium-containing compounds, MSC and SLM were compared in xenografts bearing A253 (SCCHN) tumors for the […] (200 mg/kg/wk×4). The data compare the antitumor activity of MSC with SLM in combination with irinotecan (200 mg/kg/wk×4).
# (§3) This example describes the modulation of the antitumor activity of anticancer drugs by MSC in mice bearing human tumors. […] To determine whether modulation of the therapeutic efficacy and cure of irinotecan by MSC is drug specific, the antitumor activity of drugs, representing different classes and mechanisms of action were evaluated alone and in combination with non-toxic doses and schedules of MSC (0.2 mg/mouse/d×14) in xenografts bearing human A253 and FaDu (SCCHN) tumors (FIG. 5). The data in FIG. 5 represent the use of the MTD doses of cisplatin (8 mg/kg×1), cyclophosphamide (100 mg/kg×1), taxol (35 mg/kg ×1.) and doxorubicin (10 mg/kg×1).
# [2] = system: FaDu squamous cell carcinoma of the head and neck xenografts; assay: Cure rate / antitumor activity in nude mice bearing FaDu head and neck xenografts; assay type: in vivo
# Protocol: as §1, §2
# Tumor Xenografts. […] The following tumor xenografts were established. • i. HCT-8: poorly-differentiated colon carcinoma, expressing wild type p53 • ii. HT-29: well-differentiated colon carcinoma expressing mutant p53 • iii. A253: well-differentiated squamous cell carcinoma of the head and neck (SCCHN) expressing no p53 • iv. FaDu: poorly-differentiated squamous cell carcinoma of the head and neck (SCCHN) expressing mutant p53 […]
# as §3
# In mice, MSC was orally administered at 0.2 mg/mouse/d with the first daily dose administered seven days prior to single i.v. administration of drug and continuous for additional seven days for a total MSC treatment of 14 days.
# Mice = details: drug alone (−) or with MSC (+)
# Rats = details: oxaliplatin 10 mg/kg single i.v.; alone or with MSC […]
# Protocol: In this example, the effect of selenium on the antitumor activity of oxaliplatin and doxorubicin was tested as follows. The effect of selenium was determined on the antitumor activity of oxaliplatin in rats bearing advanced ward colorectal carcinoma (3000 mg). Rats received MSC (0.75 mg/rat/d) or saline fourteen days prior to single i.v. injection of oxaliplatin of 5 and 10 mg/kg with continuous daily oral administration of MSC for additional seven days for a total of 21 days of MSC and oxaliplatin is administered on day 14 after saline and MSC treatment.
# in vivo = details: nude, mouse
# [3] = Table 3 (A253), drug dose mg/kg and MSC mg/mouse/day in parentheses of Treatment
# [4] = Table 3 first column pair (head printed 'FaUra'), drug dose mg/kg and MSC mg/mouse/day in parentheses of Treatment, schedules per footnote
SMILES,reducing toxicity of doxorubicin (rat),"CR (%) (complete tumor regression) [1, 3]","PR (%) (partial tumor regression, >50% tumor reduction) [1, 3]","CR (%) (complete tumor regression) [2, 4]",MTD (mg/kg) Mice (Mice) [mg/kg],"CR (%) (complete tumor regression) ([1]; mouse, in vivo)","PR (%) (partial tumor regression, >50% tumor reduction) ([1]; mouse, in vivo)","CR (%) (complete tumor regression) ([2]; mouse, in vivo)","PR (%) (partial tumor regression, >50% tumor reduction) ([2]; mouse, in vivo)",other results
"C[Se]C[C@H](N)C(=O)O [MSC, 5-methylselenocysteine]",effective in reducing toxicity,,,,,,,,,lowest effective dose in attenuating irinotecan toxicity (nude mice): 0.01 mg/day; toxicity of selenium compound alone (normal nude mice): not to be toxic
O=[Se](O)O [sodium selenite],not sodium selenite,,,,,,,,,
CCCCCOC(=O)Nc1nc(=O)n([C@@H]2O[C@H](C)[C@@H](O)[C@H]2O)cc1F [Xeloda],,0,0,0,,,,,,
"O=C1[O][Pt]2([NH][C@@H]3CCCC[C@H]3[NH]2)[O]C1=O [Oxaliplatin, oxaliplatin]",,,,,7.5,0,0,0,0,toxicity (weight loss and diarrhea) (Rats): toxic
"N.N.[Cl][Pt][Cl] [Cisplatin, cisplatin]",,0,0,0,8,,,,,"PR (%) (partial tumor regression, >50% tumor reduction) ([2]; Table 3 first column pair (head printed 'FaUra'), drug dose mg/kg and MSC mg/mouse/day in parentheses of Treatment): 0%"
"O=P1(N(CCCl)CCCl)NCCCO1 (centres unmarked) [Cyclophosphamide, cyclophosphamide]",,,,,,0,0,0,0,MTD (in vivo): 100 mg/kg
